Test results taken from patent US11547681B2, “N-acylethanolamide derivatives and uses thereof” (ELIEM THERAPEUTICS, INC., priority 2016, dated 2023).

Key:
[1] = Plasma stability (37° C., pH 7.4), mouse; assay type: in vitro ADME, CD-1 mouse; settings: for half-life at 1 μM: male, CD-1, mouse, plasma; for % Remaining of Initial (n = 1), 0 min / % Remaining of Initial (n = 1), 15 min / % Remaining of Initial (n = 1), 30 min / % Remaining of Initial (n = 1), 60 min / % Remaining of Initial (n = 1), 120 min / % Remaining of Initial: mouse plasma; for % Remaining of Initial (n = 1), 0 min: pH 7.4, 0 min; for % Remaining of Initial (n = 1), 15 min: pH 7.4, 15 min; for % Remaining of Initial (n = 1), 30 min: pH 7.4, 30 min; for % Remaining of Initial (n = 1), 60 min: pH 7.4, 60 min; for % Remaining of Initial (n = 1), 120 min: pH 7.4, 120 min; for % Remaining of Initial: n = 1; for % Remaining of Initial (n = 1): Mouse plasma
Experimental: (§1) Studies were carried out in mixed-gender human plasma (Lot #GLP530-5), male Sprague-Dawley rat (Lot #RAT297944, RAT313140), male CD-1 mouse (Lot #MSE237700), and male Beagle dog (Lot #BGL87670, BGL82614), collected on sodium heparin. Plasma was adjusted to pH 7.4 prior to initiating the experiments. DMSO stocks were first prepared for the test articles. Aliquots of the DMSO solutions were dosed into 700 μL of plasma, which had been pre-warmed to 37° C., at a final test article concentration of 1 μM. […] Samples were stored at 4° C. until the end of the experiment. After the final time point was sampled, the plate was mixed and then centrifuged at 3,000 rpm for 10 minutes. Calibration standards were prepared in matched matrix. […] Analytical conditions are outlined in Appendix 8-1.
as §1, with “#AS1650-2),” for “#GLP530-5),”, “#RAT297944),” for “#RAT297944, RAT313140),”, “CD-I” for “CD-1”, “#BGL91384),” for “#BGL87670, BGL82614),”, “10-1.” for “8-1.”
(§2) Studies were carried out in mixed-gender human plasma (Lot #AS1650-2), male Sprague-Dawley rat (Lot #RAT297944), male CD-1 mouse (Lot #MSE237700), and male Beagle dog (Lot #BGL91384), collected on sodium heparin. Plasma was adjusted to pH 7.4 prior to initiating the experiments. DMSO stocks were first prepared for test articles. […] Samples were stored at 4° C. until the end of experiment. After the final time point was sampled, the plate was mixed and then centrifuged at 3,000 rpm for 10 minutes. Calibration standards were prepared in matched matrix. […] Analytical conditions are outlined in Appendix 13-1.
(§3) Studies were carried out in mixed-gender human plasma (Lot #AS 1650-2), male Sprague-Dawley rat (Lot #RAT320835), male CD-1 mouse (Lot #MSE260693), and 6 male Beagle dog (Lot #BGL91384), on sodium heparin. Plasma was adjusted to pH 7.4 prior to initiating the experiments. DMSO stocks were first prepared for the test articles. Aliquots of the DMSO solutions were dosed into 700 μL of plasma, which had been pre-warmed to 37° C., at a final test article concentration of 1 μM. […] Samples were stored at 4° C. until the end of the experiment. After the final time point was sampled, the plate was mixed and then centrifuged at 3,000 rpm for 10 minutes. Calibration standards were prepared in matched matrix. […] Analytical conditions are outlined in Appendix 17-1.

[2] = Plasma stability (37° C., pH 7.4), dog; assay type: in vitro ADME, Beagle dog; settings: for % Remaining of Initial (n = 1), 0 min / % Remaining of Initial (n = 1), 15 min / % Remaining of Initial (n = 1), 30 min / % Remaining of Initial (n = 1), 60 min / % Remaining of Initial (n = 1), 120 min / % Remaining of Initial: dog plasma; for % Remaining of Initial (n = 1), 0 min: pH 7.4, 0 min; for % Remaining of Initial (n = 1), 15 min: pH 7.4, 15 min; for % Remaining of Initial (n = 1), 30 min: pH 7.4, 30 min; for % Remaining of Initial (n = 1), 60 min: pH 7.4, 60 min; for % Remaining of Initial (n = 1), 120 min: pH 7.4, 120 min; for half-life at 1 μM: male, Beagle, dog, plasma; for % Remaining of Initial: n = 1; for % Remaining of Initial (n = 1): Dog plasma
Experimental: as §1
as §1, with “#AS1650-2),” for “#GLP530-5),”, “#RAT297944),” for “#RAT297944, RAT313140),”, “CD-I” for “CD-1”, “#BGL91384),” for “#BGL87670, BGL82614),”, “10-1.” for “8-1.”
as §2, §3

[3] = pH 7.4, mouse plasma, test article 1 μM, 37° C., pH 7.4, read-out: Half-life
[4] = pH 7.4, dog plasma, test article 1 μM, 37° C., pH 7.4
[5] = pH 7.4, mouse plasma, read-out: Half-life

| Structure (SMILES) | half-life at 1 μM [1, 3] [min] | % Remaining of Initial (n = 1), 0 min ([1]; test article 1 μM, 37° C.) [%] | % Remaining of Initial (n = 1), 15 min ([1]; test article 1 μM, 37° C.) [%] | % Remaining of Initial (n = 1), 30 min ([1]; test article 1 μM, 37° C.) [%] | % Remaining of Initial (n = 1), 60 min ([1]; test article 1 μM, 37° C.) [%] | % Remaining of Initial (n = 1), 120 min ([1]; test article 1 μM, 37° C.) [%] | % Remaining of Initial (n = 1), 0 min ([2]; test article 1 μM, 37° C.) [%] | % Remaining of Initial (n = 1), 15 min ([2]; test article 1 μM, 37° C.) [%] | % Remaining of Initial (n = 1), 30 min ([2]; test article 1 μM, 37° C.) [%] | % Remaining of Initial (n = 1), 60 min ([2]; test article 1 μM, 37° C.) [%] | % Remaining of Initial (n = 1), 120 min ([2]; test article 1 μM, 37° C.) [%] | half-life at 1 μM [2, 4] [min] | also measured |
| --- | --- | --- | --- | --- | --- | --- | --- | --- | --- | --- | --- | --- | --- |
| CCCCCCCCCCCCCCCC(=O)NCCOC(=O)CCC [Compound I-2] | 62 | 100 | 72 | 71 | 56 | 21 | 100 | 95 | 71 | 54 | 24 | 61 | – |
| CCCCCCCCCCCCCCCC(=O)NCCOC(=O)CCC(=O)OCC(COC(=O)CCCCCCC)OC(=O)CCCCCCC (centres unmarked) [Compound I-3, PEA-Succinate-Glycerol-Di-Caprylic] | 9.4 | 100 | 23 | 24 | 9.1 | 4.7 | 100 | 90 | 90 | 95 | 99 | > 120 | – |
| CC/C=C\C/C=C\C/C=C\C/C=C\C/C=C\CCCC(=O)OCCNC(=O)CCCCCCCCCCCCCCC [Compound I-5] | > 120 | 100 | 109 | 86 | 73 | 75 | 100 | 87 | 98 | 87 | 83 | > 120 | half-life at 1 μM ([1]; pH 7.4, mouse plasma, calculated value beyond duration of experiment, read-out: Half-life (min), calculated half-life in parentheses): 213 min |
| CCCCC/C=C\C/C=C\CCCCCCCC(=O)OCCNC(=O)CCCCCCCCCCCCCCC [Compound I-6] | 56 | 100 | 83 | 89 | 39 | 23 | 100 | 55 | 42 | 34 | 22 | 36 | – |
| CCCCCCCCCCCCCCCC(=O)NCCOC(=O)CCC(=O)OC[C@H]1O[C@@](CO)(O[C@H]2O[C@H](CO)[C@@H](O)[C@H](O)[C@H]2O)[C@@H](O)[C@@H]1O [Compound I-7] | < 1 | 100 | <1.0 | <1.0 | <1.0 | <1.0 | 100 | <1.0 | <1.0 | <1.0 | <1.0 | < 1 | – |
| CCCCCCCCCCCCCCCC(=O)NCCOC(=O)CCC(=O)OC(CO)CO [Compound I-8] | – | – | – | – | – | – | – | – | – | – | – | – | half-life at 1 μM [1, 5]: < 1 min; % Remaining of Initial ([1]; 0 min, 1 μM): 100%; % Remaining of Initial ([1]; 15 min, 1 μM): <1.0%; % Remaining of Initial ([1]; 30 min, 1 μM): <1.0%; % Remaining of Initial ([1]; 60 min, 1 μM): <1.0%; % Remaining of Initial ([1]; 120 min, 1 μM): <1.0%; % Remaining of Initial ([2]; 0 min, 1 μM): 100%; % Remaining of Initial ([2]; 15 min, 1 μM): <1.0%; % Remaining of Initial ([2]; 30 min, 1 μM): <1.0%; % Remaining of Initial ([2]; 60 min, 1 μM): <1.0%; % Remaining of Initial ([2]; 120 min, 1 μM): <1.0%; half-life at 1 μM ([2]; pH 7.4, dog plasma): < 1 min |
| CCCCCCCCCCCCCCCC(=O)NCCOC(=O)CCC(=O)OCC(O)CO (centres unmarked) [Compound I-9] | 13 | 100 | 49 | 17 | 2.3 | <1.0 | 100 | 8.7 | 12 | 1.2 | <1.0 | 4.7 | – |
| CCCCCCCCCCCCCCCC(=O)NCCOC(=O)CCC(=O)OCC(COC(=O)CCC)OC(=O)CCC (centres unmarked) [Compound I-11] | 3 | 100 | 2.9 | 2.1 | 1.9 | <1.0 | 100 | 61 | 40 | 18 | 5.4 | 23 | – |
| CCCCC/C=C\C/C=C\CCCCCCCC(=O)OCC(COC(=O)CCC(=O)OCCNC(=O)CCCCCCCCCCCCCCC)OC(=O)CCCCCCC/C=C\C/C=C\CCCCC (centres unmarked) [Compound I-13] | – | – | – | – | – | – | – | – | – | – | – | – | % Remaining of Initial (n = 1) ([1]; 0 min, 1 μM): 100%; % Remaining of Initial (n = 1) ([1]; 15 min, 1 μM): 82%; % Remaining of Initial (n = 1) ([1]; 30 min, 1 μM): 71%; % Remaining of Initial (n = 1) ([1]; 60 min, 1 μM): 49%; % Remaining of Initial (n = 1) ([1]; 120 min, 1 μM): 35%; half-life at 1 μM ([1]; pH 7.4, Mouse plasma, 1 μM, read-out: Half-life): 70 min; % Remaining of Initial (n = 1) ([2]; 0 min, 1 μM): 100%; % Remaining of Initial (n = 1) ([2]; 15 min, 1 μM): 90%; % Remaining of Initial (n = 1) ([2]; 30 min, 1 μM): 72%; % Remaining of Initial (n = 1) ([2]; 60 min, 1 μM): 54%; % Remaining of Initial (n = 1) ([2]; 120 min, 1 μM): 23%; half-life at 1 μM ([2]; pH 7.4, Dog plasma, 1 μM): 61 min |
| CCCCCCCCCCCCCCCC(=O)NCCOC(=O)CCC(=O)OC(COC(=O)CCC)COC(=O)CCC [Compound I-16] | – | – | – | – | – | – | – | – | – | – | – | – | half-life at 1 μM [1, 5]: < 15 min; half-life at 1 μM ([1]; pH 7.4, mouse plasma, read-out: Half-life, calculated value in parentheses): 4.7 min; % Remaining of Initial ([1]; 0 min, 1 μM): 100%; % Remaining of Initial ([1]; 15 min, 1 μM): 10%; % Remaining of Initial ([1]; 30 min, 1 μM): 4.0%; % Remaining of Initial ([1]; 60 min, 1 μM): 1.1%; % Remaining of Initial ([1]; 120 min, 1 μM): <1.0%; % Remaining of Initial ([2]; 0 min, 1 μM): 100%; % Remaining of Initial ([2]; 15 min, 1 μM): 91%; % Remaining of Initial ([2]; 30 min, 1 μM): 65%; % Remaining of Initial ([2]; 60 min, 1 μM): 39%; % Remaining of Initial ([2]; 120 min, 1 μM): 13%; half-life at 1 μM ([2]; pH 7.4, dog plasma): 44 min |
